From ChEMBL document CHEMBL1201862, “PubChem BioAssay data set” (2004)
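Protocol summary: plate cells (96-well), add compound at 5 concentrations, incubate 48 h, interpolate endpoints linearly. GI50 marks 50% less growth.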 Active and inactive are the calls of the source. No stated cut-off is given here; in the data, active = GI50 up to about 1.1 µM and inactive = higher. Where a SMILES comes first, the peptide text is derived from it. [ ]: non-standard residue; d: D form. ξ: configuration not given here. ξThz(5,5-Me2) = CC1(C)SCNC1C(=O)O

Columns and labels:
Assay in all cases: NCI anticancer screen, dose series, 48 h
ACHN = system: ACHN
CCRF-CEM = system: CCRF-CEM
DMS-114 = system: DMS-114
HCT-116 = system: HCT-116
IGROV-1 = system: IGROV-1
KM12 = system: KM12
OVCAR-5 = system: OVCAR-5
RXF 393 = system: RXF 393
SF-539 = system: SF-539
SK-MEL-28 = system: SK-MEL-28
SK-OV-3 = system: SK-OV-3
SW-620 = system: SW-620
U-251 = system: U-251
UACC-62 = system: UACC-62
DU-145 = system: DU-145
MCF7 = system: MCF7
MDA-MB-231 = system: MDA-MB-231
MDA-MB-435 = system: MDA-MB-435
MDA-N = system: MDA-N
NCI-H226 = system: NCI-H226

COC(=O)c1nc(-c2ccc(Cl)c(Cl)c2)nc2ccc(Cl)cc12
GI50 (ACHN): 44.6 µM (inactive) | GI50 (CCRF-CEM): > 10 µM (inactive) | GI50 (DMS-114): 13.8 µM (inactive) | GI50 (HCT-116): 18.4 µM (inactive) | GI50 (IGROV-1): 94.4 µM (inactive) | GI50 (KM12): > 100 µM (inactive) | GI50 (OVCAR-5): 27.4 µM (inactive) | GI50 (RXF 393): 22.8 µM (inactive) | GI50 (SF-539): 17.5 µM (inactive) | GI50 (SK-MEL-28): > 100 µM (inactive) | GI50 (SK-OV-3): 20.6 µM (inactive) | GI50 (SW-620): > 100 µM (inactive) | GI50 (U-251): 43.7 µM (inactive) | GI50 (UACC-62): 87.3 µM (inactive)

CCc1ccc(/C(C)=N/NC(N)=S)cc1
GI50 (DMS-114): 48.9 µM (inactive) | GI50 (HCT-116): > 100 µM (inactive) | GI50 (IGROV-1): > 100 µM (inactive) | GI50 (KM12): > 100 µM (inactive) | GI50 (OVCAR-5): 13.1 µM (inactive) | GI50 (RXF 393): 47.3 µM (inactive) | GI50 (SF-539): > 100 µM (inactive) | GI50 (SK-MEL-28): > 100 µM (inactive) | GI50 (SK-OV-3): > 100 µM (inactive) | GI50 (U-251): > 100 µM (inactive) | GI50 (UACC-62): 31.8 µM (inactive)

CSC(=N/N=C(\C)c1ccc(S(=O)(=O)N(C)c2ccccc2)cc1)SC
GI50 (ACHN): > 70 µM (inactive) | GI50 (CCRF-CEM): 15.6 µM (inactive) | GI50 (DU-145): > 66.4 µM (inactive) | GI50 (HCT-116): > 64.7 µM (inactive) | GI50 (IGROV-1): > 61.4 µM (inactive) | GI50 (KM12): > 64.4 µM (inactive) | GI50 (MCF7): 31.1 µM (inactive) | GI50 (MDA-MB-231): > 61.8 µM (inactive) | GI50 (MDA-MB-435): > 62.8 µM (inactive) | GI50 (MDA-N): > 66.2 µM (inactive) | GI50 (NCI-H226): > 100 µM (inactive) | GI50 (OVCAR-5): > 66.5 µM (inactive) | GI50 (RXF 393): 27.7 µM (inactive) | GI50 (SF-539): > 52.4 µM (inactive) | GI50 (SK-MEL-28): > 67.9 µM (inactive) | GI50 (SK-OV-3): > 66.5 µM (inactive) | GI50 (SW-620): > 66.4 µM (inactive) | GI50 (U-251): > 51.9 µM (inactive) | GI50 (UACC-62): > 65.8 µM (inactive)

CC[C@H](C)C1=C(OC(C)=O)[N@+]2([O-])Oc3ccc(-c4c(OC(C)=O)c(OC(C)=O)c(-c5ccc(OC(C)=O)cc5)c(OC(C)=O)c4OC(C)=O)cc3O[C@]2([C@@H](C)CC)C(=O)N1OC(C)=O
GI50 (ACHN): 15.5 µM (inactive) | GI50 (CCRF-CEM): 0.294 µM (active) | GI50 (DU-145): 16.6 µM (inactive) | GI50 (HCT-116): 15.2 µM (inactive) | GI50 (IGROV-1): 9.29 µM (inactive) | GI50 (KM12): 14.4 µM (inactive) | GI50 (MCF7): 17.5 µM (inactive) | GI50 (MDA-MB-231): 23.9 µM (inactive) | GI50 (MDA-MB-435): 16 µM (inactive) | GI50 (MDA-N): 9.79 µM (inactive) | GI50 (NCI-H226): 17.6 µM (inactive) | GI50 (OVCAR-5): 29.2 µM (inactive) | GI50 (RXF 393): 38.3 µM (inactive) | GI50 (SF-539): 11.2 µM (inactive) | GI50 (SK-MEL-28): 12.2 µM (inactive) | GI50 (SK-OV-3): 12.7 µM (inactive) | GI50 (SW-620): 13 µM (inactive) | GI50 (U-251): 16 µM (inactive) | GI50 (UACC-62): 9.46 µM (inactive)

CC(C)(C)NC(=O)NC12CC3CC(CC(F)(C3)C1)C2
GI50 (ACHN): > 100 µM (inactive) | GI50 (CCRF-CEM): > 100 µM (inactive) | GI50 (DMS-114): > 100 µM (inactive) | GI50 (HCT-116): > 100 µM (inactive) | GI50 (IGROV-1): > 100 µM (inactive) | GI50 (KM12): > 100 µM (inactive) | GI50 (OVCAR-5): > 100 µM (inactive) | GI50 (RXF 393): > 100 µM (inactive) | GI50 (SF-539): > 100 µM (inactive) | GI50 (SK-MEL-28): > 100 µM (inactive) | GI50 (SK-OV-3): > 100 µM (inactive) | GI50 (SW-620): > 100 µM (inactive) | GI50 (U-251): > 100 µM (inactive) | GI50 (UACC-62): > 100 µM (inactive)

CC(CC(=O)N1C(=O)C(C)(C)[C@@H](O)[C@H]1CC(C)C(Cl)(Cl)Cl)C(Cl)(Cl)Cl (stereo partly specified)
GI50 (ACHN): > 100 µM (inactive) | GI50 (CCRF-CEM): > 100 µM (inactive) | GI50 (DMS-114): > 100 µM (inactive) | GI50 (HCT-116): > 100 µM (inactive) | GI50 (IGROV-1): > 100 µM (inactive) | GI50 (KM12): > 100 µM (inactive) | GI50 (NCI-H226): > 100 µM (inactive) | GI50 (SF-539): > 100 µM (inactive) | GI50 (SK-OV-3): > 100 µM (inactive) | GI50 (SW-620): > 100 µM (inactive) | GI50 (U-251): > 100 µM (inactive) | GI50 (UACC-62): > 100 µM (inactive)

C[Si](C)(C)/C=C\CCO
GI50 (ACHN): > 100 µM (inactive) | GI50 (CCRF-CEM): > 100 µM (inactive) | GI50 (DMS-114): > 100 µM (inactive) | GI50 (HCT-116): > 100 µM (inactive) | GI50 (IGROV-1): > 100 µM (inactive) | GI50 (KM12): > 100 µM (inactive) | GI50 (OVCAR-5): > 100 µM (inactive) | GI50 (RXF 393): > 100 µM (inactive) | GI50 (SF-539): > 100 µM (inactive) | GI50 (SK-MEL-28): > 100 µM (inactive) | GI50 (SK-OV-3): > 100 µM (inactive) | GI50 (SW-620): > 100 µM (inactive) | GI50 (U-251): > 100 µM (inactive) | GI50 (UACC-62): > 100 µM (inactive)

c1ccc(C2(c3ccccc3)SSC3(S2)C2CC4CC(C2)CC3C4)cc1 (stereo unspecified)
GI50 (ACHN): > 100 µM (inactive) | GI50 (CCRF-CEM): 39.7 µM (inactive) | GI50 (DMS-114): > 100 µM (inactive) | GI50 (HCT-116): > 100 µM (inactive) | GI50 (IGROV-1): > 100 µM (inactive) | GI50 (KM12): > 100 µM (inactive) | GI50 (OVCAR-5): > 100 µM (inactive) | GI50 (RXF 393): > 100 µM (inactive) | GI50 (SF-539): > 100 µM (inactive) | GI50 (SK-MEL-28): > 100 µM (inactive) | GI50 (SK-OV-3): > 100 µM (inactive) | GI50 (SW-620): > 100 µM (inactive) | GI50 (U-251): > 100 µM (inactive) | GI50 (UACC-62): > 100 µM (inactive)

CSCC[C@H](NC(=O)[C@H](CC(C)C)NC(=O)[C@H](Cc1c[nH]cn1)NC(=O)CNC(=O)C1N(C(=O)[C@@H](C)NC(=O)[C@H](Cc2c[nH]c3ccccc23)NC(=O)[C@H](CCC(N)=O)NC(=O)[C@@H](N)CC(N)=O)CSC1(C)C)C(N)=O (stereo partly specified) (H-NQW[dA][ξThz(5,5-Me2)]GHLM-NH2)
GI50 (ACHN): > 25 µM (inactive) | GI50 (CCRF-CEM): > 25 µM (inactive) | GI50 (DU-145): > 25 µM (inactive) | GI50 (HCT-116): > 25 µM (inactive) | GI50 (IGROV-1): > 25 µM (inactive) | GI50 (KM12): > 25 µM (inactive) | GI50 (MCF7): > 25 µM (inactive) | GI50 (MDA-MB-231): > 25 µM (inactive) | GI50 (MDA-MB-435): > 25 µM (inactive) | GI50 (MDA-N): > 25 µM (inactive) | GI50 (NCI-H226): > 25 µM (inactive) | GI50 (OVCAR-5): > 25 µM (inactive) | GI50 (RXF 393): > 25 µM (inactive) | GI50 (SF-539): > 25 µM (inactive) | GI50 (SK-MEL-28): > 25 µM (inactive) | GI50 (SK-OV-3): > 25 µM (inactive) | GI50 (SW-620): > 25 µM (inactive) | GI50 (U-251): > 25 µM (inactive) | GI50 (UACC-62): > 25 µM (inactive)
